Results published in US20240116985A1, “STAPLED PEPTIDES AND METHODS THEREOF” (priority 2020, published 2024).
Values after ≈ are worked out from the molar mass of the structure shown. Where two headings read alike, the source gives them in different places.

Columns and labels:
[1] = target: T1, full-length beta-Catenin (Uniprot ID P35222) (Homo sapiens, UniProt P35222); assay: Fluorescence polarization IC50 (beta-catenin / 5FAM-TCF4 10-53 competition); type: binding; settings: fluorescence polarization; read-out: beta-Catenin FP IC50
T1 construct: 10 nM full-length beta-Catenin (Uniprot ID P35222)
T1 sequence (P35222 1-781): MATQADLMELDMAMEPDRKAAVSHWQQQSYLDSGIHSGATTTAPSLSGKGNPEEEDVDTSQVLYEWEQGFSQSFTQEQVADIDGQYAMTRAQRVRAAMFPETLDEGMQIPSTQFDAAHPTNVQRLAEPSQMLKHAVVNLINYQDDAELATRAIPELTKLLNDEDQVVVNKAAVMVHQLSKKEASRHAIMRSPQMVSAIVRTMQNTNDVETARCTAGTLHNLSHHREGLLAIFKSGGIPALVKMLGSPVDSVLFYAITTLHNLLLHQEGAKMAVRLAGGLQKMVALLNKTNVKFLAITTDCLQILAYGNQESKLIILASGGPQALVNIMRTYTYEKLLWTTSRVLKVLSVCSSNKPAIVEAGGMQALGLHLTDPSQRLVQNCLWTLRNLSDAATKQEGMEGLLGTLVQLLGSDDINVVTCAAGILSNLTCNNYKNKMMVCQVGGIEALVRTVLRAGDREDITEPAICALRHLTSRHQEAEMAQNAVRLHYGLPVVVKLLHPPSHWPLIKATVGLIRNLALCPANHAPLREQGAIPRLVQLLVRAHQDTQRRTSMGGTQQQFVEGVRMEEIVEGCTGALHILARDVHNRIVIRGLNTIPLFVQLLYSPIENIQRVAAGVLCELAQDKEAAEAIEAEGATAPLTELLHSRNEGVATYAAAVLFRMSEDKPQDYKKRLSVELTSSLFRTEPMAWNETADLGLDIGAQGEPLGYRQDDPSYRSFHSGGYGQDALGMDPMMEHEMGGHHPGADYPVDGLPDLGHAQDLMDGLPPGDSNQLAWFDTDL

Solubility in PBS = type: physicochemical
Method in brief: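 Read-out is the HPLC peak area of the supernatant from ultracentrifuged PBS solution, scaled against a 50 μM peptide DMSO injection; value reported as [(PBS area)/(DMSO area)]*50 uM.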

[2] = target: T2, beta-catenin/TCF4 engagement (Homo sapiens, UniProt P35222); assay: Nano-BRET target engagement assay (B-cat-Halo & TCF4-Luc in HEK293 cells); type: cell-based; settings: absolute IC50; read-out: NanoBRET Abs IC50
T2 construct: expressed in transfected cells; host or cells: HEK293
T2 sequence (P35222 1-781): T1 sequence (P35222 1-781)

Structure (SMILES) | IC50 [1] [nM] | Solubility (Solubility in PBS) [µM] | IC50 [2] [nM] | Solubility (Solubility in PBS; Solubility (uM)) [µM]
CC(=O)N1CCC[C@]12CC=CCCCC1(CCCC=CCCCOC(=O)N3CC[C@@](C(=O)N[C@@H](Cc4ccccc4Cl)C(=O)N[C@@H](Cc4csc5ccccc45)C(=O)N[C@@H](CCC(N)=O)C(N)=O)(C3)NC(=O)[C@H](CO)NC(=O)[C@H](Cc3ccccc3)NC(=O)[C@H](CC(C)C)NC(=O)[C@H](C)NC(=O)[C@H](CC(=O)O)NC(=O)[C@H](CC(=O)O)NC1=O)NC(=O)[C@H](CC1CCCCC1)NC(=O)[C@H](CC(=O)O)NC2=O (stereo partly drawn) [I-1148, Ac-PL3-Asp-Cha-B5-Asp-Asp-Ala-Leu-Phe-Ser-PyrS2-2C1F-BztA-Gln-NH2] | 50 | 10 (≈ 19.9 µg/mL) | 21500 | 
CC(=O)N1CCC[C@]12CC=CCCCC1(CCCC=CCCCOC(=O)N3CC[C@@](C(=O)N[C@@H](Cc4ccccc4C(N)=O)C(=O)N[C@@H](Cc4csc5ccccc45)C(=O)N[C@@H](CCC(N)=O)C(N)=O)(C3)NC(=O)[C@H](Cc3ccccc3)NC(=O)[C@H](Cc3ccccc3)NC(=O)[C@H](C)NC(=O)[C@H](C)NC(=O)[C@H](CC(=O)O)NC(=O)[C@H](CC(=O)O)NC1=O)NC(=O)[C@H](CC(C)(C)C)NC(=O)[C@H](CC(=O)O)NC2=O (stereo partly drawn) [I-1316, Ac-PL3-Asp-Npg-B5-Asp-Asp-Ala-Ala-Phe-Phe-PyrS2-2cbmF-BztA-Gln-NH2] | 11 |  | 6800 | 48 (≈ 95.4 µg/mL)
CC(=O)N1CCC[C@]12CC=CCCCC1(CCCC=CCCCOC(=O)N3CC[C@@](C(=O)N[C@@H](Cc4ccccc4C#N)C(=O)N[C@@H](Cc4csc5ccccc45)C(=O)N[C@@H](CCC(N)=O)C(N)=O)(C3)NC(=O)[C@H](CC(C)C)NC(=O)[C@H](Cc3ccccc3)NC(=O)[C@H](C)NC(=O)[C@H](C)NC(=O)[C@H](CC(=O)O)NC(=O)[C@H](CC(=O)O)NC1=O)NC(=O)[C@H](CC(C)(C)C)NC(=O)[C@H](CC(=O)O)NC2=O (stereo partly drawn) [I-1203, Ac-PL3-Asp-Npg-B5-Asp-Asp-Ala-Ala-Phe-Leu-PyrS2-2CNF-BztA-Gln-NH2] | 16 | 50 (≈ 96.8 µg/mL) | 10000 | 
CC(=O)N1CCC[C@]12CC=CCCCC1(CCCC=CCCCOC(=O)N3CC[C@@](C(=O)N[C@@H](Cc4ccccc4Cl)C(=O)N[C@@H](Cc4csc5ccccc45)C(=O)N[C@@H](CCO)C(N)=O)(C3)NC(=O)[C@H](CO)NC(=O)[C@H](Cc3ccccc3)NC(=O)[C@H](C)NC(=O)[C@H](C)NC(=O)[C@H](CC(=O)O)NC(=O)[C@H](CC(=O)O)NC1=O)NC(=O)[C@H](Cc1ccccc1)NC(=O)[C@H](CC(=O)O)NC2=O (stereo partly drawn) [I-1143, Ac-PL3-Asp-Phe-B5-Asp-Asp-Ala-Ala-Phe-Ser-PyrS2-2C1F-BztA-Hse-NH2] | 12 |  | 33100 | 44 (≈ 84.2 µg/mL)
CC(=O)N1CCC[C@]12CC=CCCCC1(CCCC=CCCCOC(=O)N3CC[C@@](C(=O)N[C@@H](Cc4ccccc4F)C(=O)N[C@@H](Cc4csc5ccccc45)C(=O)N[C@@H](CCC(N)=O)C(N)=O)(C3)NC(=O)[C@H](CC(C)C)NC(=O)[C@H](Cc3ccccc3)NC(=O)[C@H](C)NC(=O)[C@H](C)NC(=O)[C@H](CC(=O)O)NC(=O)[C@H](CC(=O)O)NC1=O)NC(=O)[C@H](CC(C)(C)C)NC(=O)[C@H](CC(=O)O)NC2=O (stereo partly drawn) [I-1321, Ac-PL3-Asp-Npg-B5-Asp-Asp-Ala-Ala-Phe-Leu-PyrS2-2FF-BztA-Gln-NH2] | 8 |  | 10900 | 48 (≈ 92.6 µg/mL)
CC(=O)N1CCC[C@]12CC=CCCCC1(CCCC=CCCCOC(=O)N3CC[C@@](C(=O)N[C@@H](Cc4ccccc4Cl)C(=O)N[C@@H](Cc4csc5ccccc45)C(=O)N[C@@H](CC(C)C)C(N)=O)(C3)NC(=O)[C@H](CCCCNC(C)C)NC(=O)[C@H](Cc3ccccc3)NC(=O)[C@H](C)NC(=O)[C@H](C)NC(=O)[C@H](CCC(=O)O)NC(=O)[C@H](CC(=O)O)NC1=O)NC(=O)[C@H](CC(C)(C)C)NC(=O)[C@H](CC(=O)O)NC2=O (stereo partly drawn) [I-1283, Ac-PL3-Asp-Npg-B5-Asp-Glu-Ala-Ala-Phe-iPrLys-PyrS2-2C1F-BztA-Leu-NH2] | 26 | 10 (≈ 20 µg/mL) | 38600 | 
CC(=O)N1CCC[C@]12CC=CCCCC1(CCCC=CCCCOC(=O)N3CC[C@@](C(=O)N[C@@H](Cc4c(F)c(F)c(F)c(F)c4F)C(=O)N[C@@H](Cc4csc5ccccc45)C(=O)N[C@@H](CCC(N)=O)C(N)=O)(C3)NC(=O)[C@H](CC(N)=O)NC(=O)[C@H](Cc3ccccc3)NC(=O)[C@H](C)NC(=O)[C@H](C)NC(=O)[C@H](CC(=O)O)NC(=O)[C@H](CC(=O)O)NC1=O)NC(=O)[C@H](CC(C)(C)C)NC(=O)[C@H](CC(=O)O)NC2=O (stereo partly drawn) [I-1186, Ac-PL3-Asp-Npg-B5-Asp-Asp-Ala-Ala-Phe-Asn-PyrS2-Pff-BztA-Gln-NH2] | 128 |  | 23600 | 46 (≈ 92.1 µg/mL)
CC(=O)N1CCC[C@]12CC=CCCCC1(CCCC=CCCCCCC[C@@](C)(C(=O)N[C@@H](Cc3ccsc3)C(=O)N[C@@H](Cc3csc4ccccc34)C(=O)N[C@@H](CCC(N)=O)C(N)=O)NC(=O)[C@H](CC(C)C)NC(=O)[C@H](Cc3ccccc3)NC(=O)[C@H](C)NC(=O)[C@H](C)NC(=O)[C@H](CC(=O)O)NC(=O)[C@H](CC(=O)O)NC1=O)NC(=O)[C@H](CC(C)(C)C)NC(=O)[C@H](CC(=O)O)NC2=O (stereo partly drawn) [I-1188, Ac-PL3-Asp-Npg-B5-Asp-Asp-Ala-Ala-Phe-Leu-S8-3Thi-BztA-Gln-NH2] | 22.5 |  | 7200 | 18 (≈ 33.7 µg/mL)
CC(=O)N1CCC[C@]12CC=CCCCC1(CCCC=CCCCOC(=O)N3CC[C@@](C(=O)N[C@@H](Cc4ccccc4Cl)C(=O)N[C@@H](Cc4csc5ccccc45)C(=O)N[C@@H](C(N)=O)[C@H](C)O)(C3)NC(=O)[C@H](CC(C)C)NC(=O)[C@H](Cc3ccccc3)NC(=O)[C@H](C)NC(=O)[C@H](C)NC(=O)[C@H](CC(=O)O)NC(=O)[C@H](CC(=O)O)NC1=O)NC(=O)[C@H](Cc1ccccc1)NC(=O)[C@H](CC(=O)O)NC2=O (stereo partly drawn) [I-1146, Ac-PL3-Asp-Phe-B5-Asp-Asp-Ala-Ala-Phe-Leu-PyrS2-2C1F-BztA-dThr-NH2] | 33 |  | > 20000 | 18 (≈ 34.9 µg/mL)
CC(=O)N1CCC[C@]12CC=CCCCC1(CCCC=CCCCOC(=O)N3CC[C@@](C(=O)N[C@@H](Cc4ccccc4Cl)C(=O)N[C@@H](Cc4csc5ccccc45)C(=O)N[C@@H](CCC(N)=O)C(N)=O)(C3)NC(=O)[C@H]([C@@H](C)O)NC(=O)[C@H](Cc3ccccc3)NC(=O)[C@H](C)NC(=O)[C@H](C)NC(=O)[C@H]([C@@H](C)O)NC(=O)[C@H](CC(=O)O)NC1=O)NC(=O)[C@H](CC(C)(C)C)NC(=O)[C@H](CC(=O)O)NC2=O (stereo partly drawn) [I-1168, Ac-PL3-Asp-Npg-B5-Asp-Thr-Ala-Ala-Phe-Thr-PyrS2-2C1F-BztA-Gln-NH2] | 25 | 10 (≈ 19.2 µg/mL) | 31400 | 
CC(=O)N1CCC[C@]12CC=CCCCC1(CCCC=CCCCOC(=O)N3CC[C@@](C(=O)N[C@@H](Cc4ccccc4Cl)C(=O)N[C@@H](Cc4csc5ccccc45)C(=O)N[C@H](CO)[C@@H](C)O)(C3)NC(=O)[C@H]([C@@H](C)O)NC(=O)[C@H](Cc3ccccc3)NC(=O)[C@H](C)NC(=O)[C@H](C)NC(=O)[C@H](CC(=O)O)NC(=O)[C@H](CC(=O)O)NC1=O)NC(=O)[C@H](CC1CCCCC1)NC(=O)[C@H](CC(=O)O)NC2=O (stereo partly drawn) [I-1312, Ac-PL3-Asp-Cha-B5-Asp-Asp-Ala-Ala-Phe-Thr-PyrS2-2C1F-BztA-Thro1] | 14 |  | 16100 | 46 (≈ 88.3 µg/mL)
